Values quoted from earlier work as cited in patent publication US8324425B2, “Method for producing bicyclic γ-amino acid derivative” (Daiichi Sankyo Company, Limited, priority 2009, dated 2012).

What was measured:
[1] = according to patients' own evaluation; Non Patent Literature 3
[2] = according to patients' own evaluation; Non Patent Literature 4

| Structure (SMILES) | efficacy in the treatment of postherpetic neuralgia [1] | efficacy in the treatment of painful diabetic neuropathy [2] |
| --- | --- | --- |
| NCC1(CC(=O)O)CCCCC1 [gabapentine] | approximately 60% |  |
| CC(C)C[C@H](CN)CC(=O)O [pregabalin] |  | approximately 50% |
